# Assay results published in US9492482B2, “Engineered cells expressing multiple immunomodulators and uses thereof” (Intrexon Corporation, priority 2008, dated 2016).
# System: DC.RheoIL12
# Assay: IL-12 secretion from DC.RheoIL12 with or without activating ligand
# Format: cell-based
# Conditions: in the presence of the activating ligand RG-115830 but not in the absence of the ligand
# Experimental: In one embodiment, the invention provides an engineered population of immune cells and TSC. In one embodiment, day 7 cultured DC are treated with recombinant adenovirus encoding an immunomodulator and/or IL-12 driven off a constitutive or inducible promoter, or are infected with mock, control adenovirus vector (rAdψ5), over a range of multiplicity of infection (MOIs). After 48 h, infected DC are harvested and analyzed for phenotype and for production of an immunomodulator and/or IL-12 using a specific ELISA kit (BD-PharMingen, San Diego, Calif.), with a lower level of detection of 62.5 pg/ml.
structure (smiles),measurement,value
"CCCC(N(NC(=O)c1cccc(OC)c1CC)C(=O)c1cc(C)cc(C)c1)C(C)(C)C (stereo not shown) [RG-115830, 3,5-Dimethyl-benzoic acid N-(1-tert-butyl-butyl)-N′-(2-ethyl-3-methoxy-benzoyl)-hydrazide]",IL-12 secreted from DC.RheoIL12,elevated levels of IL-12 are secreted
